# According to PubChem BioAssay (NCI):
# Where “and” joins values, the source holds several entries; their conditions need not be identical. Equal entries are not always repeated.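 The compound was tested at five concentrations on cells cultured in 96-well plates, with a 48-hour exposure period. GI50 is the concentration that inhibits growth by half. TGI is the concentration that stops growth completely.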
# Experiments:
# Assay in all cases: NCI tumour cell line growth inhibition, 48 h
# [1] = test system: SNB-75 CNS
# [2] = test system: MOLT-4 leukemia
# [3] = test system: HOP-92 NSCLC
# [4] = test system: K-562 leukemia
# [5] = test system: SK-MEL-5 melanoma
# [6] = test system: HT29 colon
# [7] = test system: EKVX NSCLC
# [8] = test system: ACHN renal
# [9] = test system: HCT-116 colon
# [10] = test system: A549 NSCLC
SMILES,GI50 [1],TGI [1],GI50 [2],TGI [2],GI50 [3],TGI [3],GI50 [4],TGI [4],GI50 [5],TGI [5],GI50 [6],TGI [6],GI50 [7],TGI [7],GI50 [8],TGI [8],GI50 [9],TGI [9],GI50 [10],TGI [10]
CC[C@H](C)n1cc(C)c2c(C(=O)NCc3c(C)cc(C)[nH]c3=O)cc(-c3ccc(N4CCNCC4)nc3)cc21,6.12 µM and 3.63 µM,19.8 µM and 17.6 µM,5.87 µM and 6.18 µM,20.6 µM and 22 µM,6.72 µM and 6.83 µM,20.9 µM and 21.1 µM,2.87 µM and 3.2 µM,8.09 µM and 10.9 µM,15.8 µM and 6.13 µM,29.2 µM and 18 µM,5.19 µM and 6.53 µM,18.4 µM and 20.6 µM,12.6 µM and 13.6 µM,27 µM and 27.6 µM,17.1 µM and 16.5 µM,31.2 µM and 31.3 µM,10.1 µM and 9.6 µM,21.6 µM and 22.1 µM,16.8 µM and 16.3 µM,32.4 µM and 32.1 µM
CC[CH2][Sn]([Cl])([Cl])[CH2]CC,6.24 µM,20.1 µM,5.35 µM,> 100 µM,10.6 µM,23.7 µM,3.33 µM,> 100 µM,10.6 µM,22.6 µM,14.4 µM,30.9 µM,12.3 µM,26.4 µM,6.88 µM,20 µM,13.1 µM,25.8 µM,18.2 µM,34.3 µM
CC(=O)OC[C@]12CC[C@@H]([C@@H](C)C(N)=O)[C@@H]1[C@H]1CC[C@@H]3[C@@]4(C)CC[C@H](OC(C)=O)C(C)(C)[C@@H]4CC[C@@]3(C)[C@]1(C)CC2,5.59 µM,44.6 µM,3.29 µM,15.2 µM,5.21 µM,19.4 µM,4.09 µM,35.7 µM,3.8 µM,13.1 µM,3.73 µM,15.4 µM,9.27 µM,22.5 µM,5.78 µM,27.3 µM,3.57 µM,14.7 µM,3.97 µM,47.5 µM
C#COc1cccc(Nc2ncnc3ncc(NC(=O)CCl)cc23)c1,> 60.1 µM,> 62.5 µM,–,> 62.5 µM,> 62.5 µM,> 62.5 µM,–,> 62.5 µM,> 51.2 µM,> 62.5 µM,–,> 62.5 µM,> 62.5 µM,> 62.5 µM,–,> 62.5 µM,0.239 µM,> 62.5 µM,> 13.8 µM,> 62.5 µM
Clc1ccc(-c2nn3ncccc3c2-c2ccnc(Nc3ccccc3)n2)cc1,6.31 µM,> 25 µM,5.77 µM,> 25 µM,2.89 µM,> 21.6 µM,2.89 µM,> 25 µM,> 12.4 µM,> 25 µM,6.51 µM,> 25 µM,2.94 µM,> 25 µM,3.69 µM,> 25 µM,7.02 µM,> 25 µM,11.3 µM,> 25 µM
CC[O-].Cc1ccc2cccc([O-])c2n1.Cc1ccc2cccc([O-])c2n1.Cc1ccc2cccc([O-])c2n1.[Ti+4],63.8 µM,> 100 µM,6.07 µM,35.8 µM,> 100 µM,> 100 µM,11.7 µM,52.2 µM,22.6 µM,52 µM,30.6 µM,> 88.9 µM,> 46 µM,> 73.5 µM,50.3 µM,> 100 µM,33.8 µM,> 100 µM,11.1 µM,20.6 µM
CCCN(CCC)CCCNC(=O)c1cc2c(-c3ccc(OC)c(OC)c3)nn(C)c2s1,12.3 µM,40.5 µM,17.6 µM,59.5 µM,6.15 µM,46.9 µM,21.5 µM,66.2 µM,15.4 µM,29 µM,14.5 µM,45.3 µM,71.7 µM,> 100 µM,17.2 µM,39.5 µM,17.7 µM,55.3 µM,36.5 µM,> 100 µM
O=C(CCCc1ccccn1)c1ccccc1,–,> 100 µM,–,> 100 µM,–,> 100 µM,–,> 100 µM,–,> 100 µM,–,> 100 µM,–,> 100 µM,–,> 100 µM,–,> 100 µM,–,> 100 µM
C#CCNC(=O)CC[C@]1(C)[C@H]2CC[C@@H]3[C@@H]([C@@](C)(O)CCC=C(C)C)CC[C@@]3(C)[C@]2(C)CC[C@H]1C(=C)C,> 100 µM,> 100 µM,17 µM,47.3 µM,14.8 µM,34.2 µM,17.8 µM,49.6 µM,38.8 µM,> 100 µM,18.8 µM,42.9 µM,47.9 µM,> 100 µM,25.3 µM,> 100 µM,17.8 µM,35.6 µM,42.7 µM,> 100 µM
COC(=O)[C@@]1(C)CC[C@]2(C)CC[C@]3(C)C4=CC=C5C(=CC(=O)C(O)=C5C)[C@]4(C)CC[C@@]3(C)[C@@H]2C1,0.313 µM,0.854 µM,0.164 µM,0.525 µM,0.163 µM,0.362 µM,0.251 µM,0.715 µM,0.2 µM,0.57 µM,0.207 µM,0.445 µM,0.295 µM,1.11 µM,0.154 µM,0.29 µM,0.163 µM,0.32 µM,1.21 µM,2.54 µM
O=C(Nc1ccccc1Br)c1cccc([N+](=O)[O-])c1O,–,53.1 µM,–,10.4 µM,–,4.99 µM,–,> 100 µM,–,5.11 µM,–,> 63.3 µM,–,42.9 µM,–,> 36.8 µM,–,14.8 µM,–,> 100 µM
O=C(O)CCCCn1cnc2c(=S)nc[nH]c21,–,> 100 µM,–,> 100 µM,–,> 100 µM,–,> 100 µM,–,> 100 µM,–,> 100 µM,–,> 100 µM,–,> 100 µM,–,> 100 µM,–,> 100 µM
CCOC(=O)c1c(C)n2c(=O)cc(C)c3c(OC(C)=O)c(OC(C)=O)cc1c32,6.08 µM,> 28.3 µM,3.13 µM,> 25.5 µM,4.78 µM,41.5 µM,3.86 µM,> 37.9 µM,3.78 µM,13.4 µM,10.9 µM,47.5 µM,4.96 µM,17.8 µM,4.89 µM,> 71.5 µM,3.56 µM,17 µM,5.86 µM,52.3 µM
COC(=O)[C@H](CC(C)C)NC(=O)NC(=O)NC(=O)CI,11.9 µM,28.6 µM,2.1 µM,5.12 µM,2.14 µM,4.98 µM,1.91 µM,4.6 µM,16.4 µM,30.3 µM,1.93 µM,3.59 µM,16.1 µM,29.8 µM,1.78 µM,3.38 µM,10 µM,22.8 µM,20.3 µM,39.6 µM
N#CC(C#N)=CSc1ccccc1,–,74.8 µM,–,> 100 µM,–,> 100 µM,–,> 100 µM,–,> 100 µM,–,98.2 µM,–,> 100 µM,–,> 100 µM,–,76.3 µM,–,> 100 µM
CCOC(=O)C(=O)N=Nc1nc2c(O)c3ccccc3c(O)c2s1,–,9.02 µM,–,> 100 µM,–,23.1 µM,–,12.7 µM,–,3.62 µM,–,35 µM,–,19.4 µM,–,6.74 µM,–,5.96 µM,–,17.6 µM
O=C(O)C1CCCCN1C(=O)c1ccccc1 (stereo not given),–,> 100 µM,–,> 100 µM,–,> 100 µM,–,> 100 µM,–,> 100 µM,–,> 100 µM,–,> 100 µM,–,> 100 µM,–,> 100 µM,–,> 100 µM
CC[C@@H](C(=O)[C@@H](C)[C@@H](O)[C@H](C)[C@@H]1O[C@@H]([C@@H](CC)C(=O)O)CC[C@@H]1C)[C@H]1OC2(C=C[C@@H](O)[C@]3(CC[C@@](C)([C@H]4CC[C@](O)(CC)[C@H](C)O4)O3)O2)[C@H](C)C[C@@H]1C (stereo not given in full),1.2 µM,> 24.2 µM,0.726 µM,2.5 µM,0.0829 µM,5.45 µM,0.213 µM,3.39 µM,0.16 µM,0.534 µM,0.231 µM,19.7 µM,0.22 µM,> 32 µM,1.68 µM,> 50 µM,0.359 µM,14.4 µM,0.233 µM,9.77 µM
O=C(NNC(=O)c1ccncc1)c1ccncc1,–,> 100 µM,–,> 100 µM,–,> 100 µM,–,> 100 µM,–,> 100 µM,–,> 100 µM,–,> 100 µM,–,> 100 µM,–,> 100 µM,–,> 100 µM
NC(=O)C(NC=O)c1ccccc1 (stereo not given),–,> 100 µM,–,> 100 µM,–,> 100 µM,–,> 100 µM,–,> 100 µM,–,> 100 µM,–,> 100 µM,–,> 100 µM,–,> 100 µM,–,> 100 µM
COc1c(CNC(=O)CCl)cc2[nH]c(C)cc2c1CNC(=O)CCl,6.43 µM,33 µM,5.19 µM,83.8 µM,4.08 µM,20.2 µM,8.42 µM,> 100 µM,8.02 µM,25 µM,5.97 µM,25.2 µM,11 µM,27.5 µM,5.47 µM,31.6 µM,2.93 µM,15.7 µM,7.38 µM,26.7 µM
Cc1cc(C)cc(Sc2c([N+](=O)[O-])ncn2C)c1,–,62.5 µM,–,38.2 µM,–,41.7 µM,–,> 100 µM,–,26.7 µM,–,38.7 µM,–,> 100 µM,–,> 100 µM,–,32.4 µM,–,> 100 µM
Cc1cc(C(=O)N2CCN(Cc3ccccc3)CC2)c(C)o1,–,> 100 µM,–,> 100 µM,–,> 100 µM,–,> 100 µM,–,> 100 µM,–,> 100 µM,–,> 100 µM,–,> 100 µM,–,> 100 µM,–,> 100 µM
CCN(CC)CCNC(=O)c1cccc2cc3ccccc3nc12,–,21.6 µM,–,7.95 µM,–,27.8 µM,–,> 100 µM,–,17.1 µM,–,35 µM,–,41.6 µM,–,22.3 µM,–,21.8 µM,–,> 100 µM
O=C1c2ccccc2-c2c1c1ccccc1c(=O)n2CCCN1CCN(CCCn2c3c(c4ccccc4c2=O)C(=O)c2ccccc2-3)CC1,> 47.7 µM,> 84 µM,0.325 µM,21.9 µM,19.9 µM,74.1 µM,42.7 µM,> 100 µM,> 100 µM,> 100 µM,> 100 µM,> 100 µM,> 100 µM,> 100 µM,22.4 µM,> 100 µM,35.3 µM,> 100 µM,> 100 µM,> 100 µM
COc1ccc(Cc2cnc(NC(=O)c3sc4ccccc4c3Cl)s2)cc1,0.2 µM,> 100 µM,0.484 µM,> 100 µM,5.26 µM,> 100 µM,0.289 µM,> 100 µM,0.335 µM,3.56 µM,0.37 µM,> 100 µM,0.48 µM,> 100 µM,0.808 µM,> 100 µM,0.408 µM,> 100 µM,0.571 µM,> 100 µM
C=C(C)[C@@H]1CCC2=C[C@@H](OC2=O)[C@@H](C(=C)C)C(=O)/C=C(/C)C(=O)C1,> 100 µM,> 100 µM,14 µM,47 µM,17.4 µM,58.2 µM,18.7 µM,> 100 µM,18.6 µM,39.4 µM,41.8 µM,> 100 µM,52.4 µM,> 100 µM,37.3 µM,> 100 µM,16.1 µM,42 µM,36.9 µM,> 100 µM
CC(=O)OC(C)(C)N=Nc1ccc(Br)cc1,–,> 91.5 µM,–,> 90.3 µM,–,67.6 µM,–,21.4 µM,–,6.26 µM,–,> 100 µM,–,> 100 µM,–,23.1 µM,–,> 100 µM,–,> 100 µM
COc1cccc(C2C3=C(COC3=O)N(CCO)c3cc4c(cc32)OCCO4)c1 (stereo not given),0.0722 µM,0.424 µM,0.195 µM,–,0.0348 µM,2.89 µM,0.0827 µM,> 50 µM,0.0474 µM,1.23 µM,0.124 µM,1.34 µM,0.265 µM,> 50 µM,0.769 µM,> 50 µM,0.152 µM,3.16 µM,0.207 µM,> 50 µM
